Test results from patent publication US5792444A, “Labeled chemotactic peptides to image focal sites of infection or inflammation” (The General Hospital Corporation, priority 1993, dated 1998).
Like-named read-outs stand apart in the source and are kept apart here. *1 amine or outer side, *2 acyl side, *3 side chain or, on linkers, in order; H or OH if unused. Where a SMILES comes first, the peptide text is derived from it. Side-chain parts run from the residue outwards. [ ]: non-standard residue; d: D form. The star is where a group is joined. Isobutyloxycarbonyl = CC(C)COC(=O)*; Met(O) = CS(=O)CC[C@H](N)C(=O)O; Cha = N[C@@H](CC1CCCCC1)C(=O)O; HYNIC = NNc1ccc(C(=O)*)cn1; Nle = CCCC[C@H](N)C(=O)O; CO = O=C([*:1])[*:2]; NHPh = c1ccc(N*)cc1; NHiPr = CC(C)N*; For = O=C*

How the values were obtained:
[1] = tested on: neutrophils / human umbilical vein endothelial cells; assay: cells; assay type: cell-based
Experimental: (§1) The unconjugated peptide iBoc-MLFK was evaluated in a neutrophil-endothelial cell adhesion assay. In this assay, neutrophils (5×10^5) labeled with 5-carboxyfluorescein diacetate were added into wells of a 48 well dish containing confluent human umbilical vein endothelial cells. The iBoc-MLFK peptide was added at a concentration of 10 μM 10 min prior to stimulation of neutrophils with 30 nM ForMLF. Percent adhesion was determined by washing off unattached neutrophils after an incubation period of 25 minutes. This peptide inhibited adhesion by 66% at this concentration. Subsequently, concentrations between 0.1-3.0 μM were examined. […] Inhibition of adhesion would reduce the infiltration of leukocytes, such as neutrophils, to a diseased site, thereby limiting the tissue damage associated with inflammation.
(§2) The procedure of Example 5 was repeated for additional CP's within the scope of the present invention. The results are shown in Table I. In the table, MPO is myeloperoxidase assay, a "-" sign means there was no effect at 30 μM, a "+" sign means there was a positive effect at 30 μM, and "N.T." means "Not

[2] = tested on: neutrophils / human umbilical vein endothelial cells; assay: Adhesion agonist (neutrophil-endothelial cell adhesion assay); assay type: cell-based; conditions: read-out: Adhesion Agonist EC50
Experimental: as §1, §2

neutrophils [3] = molecular target: T1, neutrophils (Homo sapiens, UniProt P21462); assay: Binding (Table I, Cell Biology Data); conditions: for Binding EC50: class symbol
T1 sequence (P21462 1-350): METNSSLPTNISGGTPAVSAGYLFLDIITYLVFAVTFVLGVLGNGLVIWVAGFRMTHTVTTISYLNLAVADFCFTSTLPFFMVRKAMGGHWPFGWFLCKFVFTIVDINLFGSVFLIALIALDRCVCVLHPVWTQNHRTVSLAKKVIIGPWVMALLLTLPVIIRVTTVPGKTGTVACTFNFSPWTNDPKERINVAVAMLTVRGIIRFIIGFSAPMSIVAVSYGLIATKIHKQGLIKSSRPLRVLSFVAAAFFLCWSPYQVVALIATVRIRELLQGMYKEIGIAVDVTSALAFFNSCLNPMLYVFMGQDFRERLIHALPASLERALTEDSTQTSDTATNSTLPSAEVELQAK
Description: Three non-DTPA derivatized peptides were included in the assay for comparison.

E. coli infection = tested on: E. coli infection; parameters: species or system New Zealand white rabbits; conditions: rabbit, in vivo
Experimental: Male New Zealand white rabbits weighing 2.2-3.0 kg were used in all studies. E. coli from a single clinical isolate were grown overnight on trypticase soy agar plates and individual colonies were diluted with sterile normal saline to produce a turbid suspension containing approximately 1×10^11 organisms/0.5 mL (determined with a spectrophotometer). A 0.5 mL inoculum of the bacterial suspension was injected deep in the left thigh muscle of the rabbits.
Twenty four hours after inoculation, rabbits with gross swelling in the infected thigh were injected with the radiopharmaceuticals through a lateral ear vein. Six animals were injected with a mixture of 1 mCi ^99m Tc-HP (>5,000 mCi/μMole) and 0.05 mCi of ^111 In labeled white blood cells.
At 3, 6, and 18 hours after injection of the radiolabeled reagents, the animals were anesthetized with ketamine/xylazine (15.0 and 1.5 mg/kg) and anterior whole body scintigrams were acquired using a large field of view gamma camera equipped with a parallel hole medium energy collimator interfaced to a dedicated computer system (Technicare Gemini 700, Technicare 560, Solon, Ohio). ^111 In and ^99m Tc images were acquired simultaneously in dual photon mode with 15% windows centered on photopeaks at 140 KeV for ^99m Tc and 247 KeV for ^111 In. At 3 and 6 hours after injection, two sets of images were acquired for a preset time of 5 minutes/view. At 18 hours after injection, the imaging time was extended to 10 minutes per view. Regions of interest were drawn over the area of infection and the contralateral normal muscle (background). The results were expressed as target-to-background ratios (infected thigh/contralateral thigh).
After acquiring the final images, the animals were sacrificed with an overdose of sodium pentobarbital and biodistribution was determined. Samples of blood, heart, lung, liver, spleen, kidney, adrenal, stomach, GI tract, testes, bone, bone marrow, normal muscle, infected muscle, and pus were weighed and radioactivity was measured with a well type gamma counter (LKB model #1282, Wallac Oy, Finland). To correct for radioactive decay and permit calculation of the concentration of radioactivity in each organ as a fraction of the administered dose, aliquots of the injected doses were counted simultaneously. The results were expressed as percent injected dose per gram (%I.D./g), infected to normal muscle ratios, and pus to normal muscle ratios.
To determine the nature of the radioactivity in the circulation and at the site of infection, the blood and pus samples were fractionated by gradient centrifugation on Lymphoprep. The plasma was further fractionated on a column of Sephadex G-100 (1.0×25 cm) eluted with PBS, pH 7.4. […]

[4] = molecular target: T2, chemoattractant receptor on human PMN's (Homo sapiens, UniProt P21462); assay: For-MLF receptor binding assay (For-ML[3H]F displacement); conditions: 15 nM For-ML[3H]F, 45 min, 24° C.
T2 construct: endogenous in cells; host or cells: isolated human PMN's (neutrophils) from healthy volunteers, intact cells
T2 sequence (P21462 1-350): T1 sequence (P21462 1-350)
Experimental: Following incubation, the cells were filtered onto glass fiber discs (Whatman GF/C; Whatman, Inc., Clifton, N.J.) which were then washed with 20 mL of ice cold incubation buffer. The filters were placed in scintillation vials with 10 mL of Safety-Solve (Research Products International Corp., Mt. Prospect, Ill.) and radioactivity was measured by liquid scintillation spectroscopy. Specific binding is defined as total binding minus nonspecific binding. Nonspecific binding is the amount of residual bound radioactivity in the presence of 10 μM unlabeled For-MLF.
The chemical purity of the final product was evaluated by TLC, HPLC, UV spectroscopy, mass spectroscopy, and amino acid analysis. Determinations of the EC50 's for binding to the chemoattractant receptor on human PMN's and superoxide generation were performed as described in Pike, M. C., and Snyderman, R., Methods Enzymol. 162:236-245 (1988); Pike, M. C., et al., Blood 67:909-913 (1986); and Fischman, A. J., et al., J. Nucl. Med. 32:483-491 (1991).

neutrophils [5] = molecular target: T1, neutrophils; assay: Free radicals antagonist (inhibition of ForMLF stimulated free radical chemiluminescence); assay type: cell-based
neutrophils [6] = molecular target: T1, neutrophils; assay: Free radicals agonist (neutrophil free radical chemiluminescence); assay type: cell-based; conditions: class symbol
[7] = read-out: Adhesion Antagonist IC50

## CC(C)C[C@H](NC(=O)OCC1c2ccccc2-c2ccccc21)C(=O)O [Example 11, FMOC-Leucine]
[1]; Homo sapiens, read-out: Adhesion Antagonist IC50
  IC50: 20 µM

## CSCC[C@H](NC(=O)c1ccc[nH]1)C(=O)N[C@@H](CC(C)C)C(=O)N[C@@H](Cc1ccccc1)C(=O)O [Example 25, Pyrrole-M--L--F]
[1]; [7]
  IC50: 6.2 µM

## NNc1ccc(C(=O)O)cn1 [Example 26, Hynic]
[2]; Homo sapiens
  EC50: > 30 µM

## CSCC[C@H](NC(=O)NC(C)C)C(=O)N[C@@H](CC(C)C)C(=O)N[C@@H](Cc1ccccc1)C(=O)N[C@@H](CCCCNC(=O)[C@H](CC(=O)O)NC(=O)c1ccc(NN)nc1)C(=O)O [Example 29, i-proplyurea-MLF--Lys--Asp--SHNH] ({NHiPr-CO}-MLFK([Asp-HYNIC])-OH; C-terminus assumed)
[1]; [7]
  IC50: > 30 µM
[2]
  EC50: 0.73 µM

## CSCC[C@H](NC(=O)NC(C)C)C(=O)N[C@@H](CC(C)C)C(=O)N[C@@H](Cc1ccccc1)C(=O)NCCCNC(=O)c1ccc(NN)nc1 [Example 30, N-i-propylurea-MLF-propanediamine-SHNH]
[1]; [7]
  IC50: > 30 µM
[2]; class symbol
  EC50: > 30 µM

## CSCC[C@H](NC(=O)NC(C)C)C(=O)N[C@@H](CC(C)C)C(=O)N[C@@H](Cc1ccccc1)C(=O)NCCCNC(=O)[C@H](CC(=O)O)NC(=O)c1ccc(NN)nc1 [Example 31, i-propylurea-MLF-n-propyldiamine-Asp--SHNH]
[1]; [7]
  IC50: > 30 µM
[2]
  EC50: 1.1 µM

## CSCC[C@H](NC(=O)Nc1ccccc1)C(=O)N[C@@H](CC(C)C)C(=O)N[C@@H](CC1CCCCC1)C(=O)O [Example 34] ({NHPh-CO}-Met-Leu-[Cha]-OH)
[2]; class symbol
  EC50: < 30 µM

## CSCC[C@H](NC(=O)OCC(C)C)C(=O)N[C@@H](CC(C)C)C(=O)N[C@@H](Cc1ccccc1)C(=O)N[C@@H](CCCCN)C(N)=O [Example 41, iBoc--MLFK] (Isobutyloxycarbonyl-MLFK-NH2)
[1]
  IC50: ~14 µM

## CCCC[C@H](NC(=O)OCC(C)C)C(=O)N[C@@H](CC(C)C)C(=O)N[C@@H](Cc1ccccc1)C(=O)N[C@@H](CCCCN)C(N)=O [Example 49, iBoc--Nle--LFK] (Isobutyloxycarbonyl-[Nle]LFK-NH2)
Neutrophils [3]
  Binding EC50: ? --

## CC(C)COC(=O)N[C@@H](CC[S+](C)[O-])C(=O)N[C@@H](CC(C)C)C(=O)N[C@@H](Cc1ccccc1)C(=O)N[C@@H](CCCCN)C(N)=O (stereo partly shown) [Example 50, iBoc--M(O)--LFK] (Isobutyloxycarbonyl-[Met(O)]LFK-NH2)
Neutrophils [3]
  Binding EC50: ? --

## CSCC[C@H](NC=O)C(=O)N[C@@H](CC(C)C)C(=O)N[C@@H](Cc1ccccc1)C(=O)O [Example 59, N-formyl-methionyl-leucyl-phenylalanine, reference compound]
[2]
  EC50: 0.007 µM

## CCCCNC(=O)N[C@@H](CCSC)C(=O)N[C@@H](CC(C)C)C(=O)N[C@@H](Cc1ccccc1)C(=O)O [Example 65, N-butylurea-MLF]
[2]; class symbol
  EC50: < 30 µM

## CCCCC(=O)N[C@@H](CCSC)C(=O)N[C@@H](CC(C)C)C(=O)N[C@@H](Cc1ccccc1)C(=O)O [Example 79, n-butyl-amidyl-MLF]
[1]; [7]
  IC50: 9.6 µM
[2]; class symbol
  EC50: > 30 µM

## CSCC[C@H](NC(N)=O)C(=O)N[C@@H](CC(C)C)C(=O)N[C@@H](Cc1ccccc1)C(=O)O [Example 98, N-hydrourea-MLF]
[2]
  EC50: 0.62 µM

## CSCC[C@H](NC=O)C(=O)N[C@@H](CC(C)C)C(=O)N[C@@H](Cc1ccccc1)C(=O)N[C@@H](CCCCNC(=O)c1ccc(NN)nc1)C(=O)O [Example 99mTc-HP, Formyl-Methionyl-Leucyl-Phenylalanyl-Lysyl-hydrazininicotinamide, metal not drawn] (For-MLFK(HYNIC)-OH)
E. coli infection
  binding to red blood cells: < 2%
  circulating radioactivity associated with leukocytes: ~ 25%
  plasma radioactivity not bound to WBC's eluting with apparent molecular weight of 150,000 (IgG fraction): > 95%
  radioactivity of pus associated with WBC's: approximately 90%

## CCCC[C@H](NC=O)C(=O)N[C@@H](CC(C)C)C(=O)N[C@@H](Cc1ccccc1)C(=O)O [For-NleLF, N-formyl-norleucyl-leucyl-phenylalanine] (For-[Nle]-Leu-Phe-OH)
[4]
  EC50: 0.3 µM

## Isopropylurea-FLFLF--Lys--Lys--SHNH [Example 18]
Neutrophils [5]
  IC50: 29.5 µM
Neutrophils [3]
  EC50: 15.7 µM
Neutrophils [6]
  EC50: > 30 µM

## Leu--Ala--SHNH--Boc [Example 8]
Neutrophils [3]
  EC50: > 100 µM
Neutrophils [6]
  EC50: > 30 µM

## N(N-isopropylurea-FLFLF-Propanediamine-SPNH [Example 94]
Neutrophils [5]
  IC50: 5 µM
Neutrophils [3]
  EC50: 0.42 µM
[2]; class symbol
  EC50: > 30 µM
Neutrophils [6]
  EC50: > 30 µM

## iBoc--MLF--S--SPNH [Example 39]
Neutrophils [5]
  IC50: 3 to 3.5 µM
[1]; [7]
  IC50: > 30 µM
Neutrophils [3]
  EC50: 0.6 to 22 µM
Neutrophils [6]
  EC50: > 30 µM

## iBoc--MLF--SPNH [Example 37]
Neutrophils [5]
  IC50: 10 to 30 µM
[1]; [7]
  IC50: > 30 µM
Neutrophils [3]
  EC50: 0.15 to 5 µM
Neutrophils [6]
  EC50: > 30 µM
